Test results reported in article PMC7822030, “Hybrid Inhibitors of DNA Gyrase A and B: Design, Synthesis and Evaluation” (Pharmaceutics, 2020).
Like-named read-outs stand apart in the source and are kept apart here.

Tests used:
[1] = target: T1, E. coli topoisomerase IV (Escherichia coli, UniProt P0AFI2+P20083); test: E. coli topoisomerase IV relaxation assay; format: biochemical; settings: for Inhibition of topoisomerase IV (in words): relaxation assay
T1 construct: purchased Inspiralis, Norwich, UK
Procedure: (§1) The assay for determination of the IC50 values was performed according to previously reported procedures.
(§2) Briefly, inhibitory activities were determined using supercoiling (for DNA gyrase) and relaxation (for topoisomerase IV) assay kits (Inspiralis, Norwich, UK) on streptavidin-coated 96-well microtiter plates from Thermo Scientific Pierce (Thermo Fisher Scientific, Waltham, MA, USA). First, the plates were rehydrated with Wash Buffer and the biotinylated oligonucleotide TFO1 was then immobilized. After washing off the unbound oligonucleotide with Wash Buffer, the enzyme assay was performed. Into each well was added 24 µL of mixture containing 6 µL of Assay Buffer (containing ATP), 0.75 µL of relaxed (for E. coli DNA gyrase supercoiling assay) or supercoiled (for E. coli topoisomerase IV relaxation assay) pNO1 plasmid and 17.25 µL of water. Additionally, 3 µL of a solution of the inhibitor in 10% DMSO containing 0.008% Tween 20 and 3 µL of enzyme (1.5 U) in Dilution Buffer were also added to the wells. […] The TF buffer was added to terminate the enzymatic reaction and after additional incubation for 30 min at room temperature, which allowed for triplex formation (biotin–oligonucleotide–plasmid), the unbound plasmid was washed off using TF buffer. Promega Diamond dye in T10 buffer was then added. […] Here, the compounds were diluted using 2-fold serial dilution steps of the given compound. GraphPad Prism 6.0 software was used to calculate the IC50 values, which were determined in at least two independent measurements, and their means are given as the final result. […] Dose-response curves can be found in Supplementary Materials.

[2] = system: A. baumannii ATCC 17978; test: MIC broth microdilution, A. baumannii; format: cell-based; settings: Acinetobacter baumannii, ATCC17978, read-out: MIC A. baumannii ATCC #
From the text: (§3) E. coli MG1655 originated from the laboratory collection of Dr. Csaba Pál. […] E. coli K-12 BW25113 single-gene knockout mutant lines ΔdapF, ΔmrcB, ΔsurA, ΔacrB and ΔtolC originated form the Keio collection copy owned by the laboratory of Dr. Csaba Pál.
(§4) Cation-adjusted Mueller Hinton II broth (MHBII) was used for growth of the bacteria under standard laboratory conditions, for antimicrobial susceptibility tests, and for selection of resistant variants. To prepare the MHBII broth, 22 g MHBII powder (containing 3 g beef extract, 17.5 g acid hydrolysate of casein, 1.5 g starch; Becton, Dickinson and Co., Franklin Lakes, NJ, USA) was dissolved in 1 L water. MHBII agar was prepared by addition of 14 g agar (Bacto; Molar Chemicals, Halásztelek, Hungary) to 1 L broth.
(§5) Minimum inhibitory concentrations (MICs) were determined using a standard serial broth microdilution technique, according to the Clinical and Laboratory Standards Institute guidelines. […] For Enterococcus sp., the cells were plated in BHI agar plates, and BHI broth was used to determine the MICs. […] Following the dilutions, each well was seeded with 5 × 10^4 bacterial cells. Each measurement was performed in three parallel replicates, and to avoid possible edge effects in the microwell plates, the outside rows (A, H) were filled with sterile medium. Following the inoculations, the plates were covered with the lids and wrapped in polyethylene plastic bags, to minimize evaporation but to allow O2 transfer. […] After incubation, the OD600 of each well was measured using a microplate reader (Synergy 2; Biotek, Winooski, VT, USA).

[3] = system: K. pneumoniae ATCC 10031; test: MIC broth microdilution, K. pneumoniae; format: cell-based; settings: Klebsiella pneumoniae, ATCC10031, read-out: MIC K. pneumoniae ATCC #
From the text: as §3, §4, §5

[4] = system: E. coli ATCC 25922; test: MIC broth microdilution, E. coli ATCC 25922; format: cell-based; settings: Escherichia coli, ATCC25922, read-out: MIC E. coli ATCC #
From the text: as §3, §4, §5

[5] = system: P. aeruginosa ATCC 27863; test: MIC broth microdilution, P. aeruginosa; format: cell-based; settings: Pseudomonas aeruginosa
From the text: as §3, §4, §5

[6] = system: E. cloacae spp. cloacae ATCC 13047; test: MIC broth microdilution, E. cloacae; format: cell-based, Enterobacter cloacae; settings: for MIC: Enterobacter cloacae, ATCC13047, read-out: MIC E. cloacae spp. cloacae ATCC #
[7] = system: E. coli MG1655 GyrA S83L, D87N ParC S80I, E84G; test: microbe, parasite or virus in culture; format: cell-based, Escherichia coli; settings: for MIC: Escherichia coli, MG1655, read-out: Minimum Inhibitory Concentration E. coli MG# GyrA S83L, D87N ParC S80I, E84G; for Minimum Inhibitory Concentration E. coli MG1655 GyrA S83L, D87N ParC S80I, E84G: in the presence of 50 µg/mL PAβN
From the text: as §3, §4, §5
(§6) These mutated amino acids are the most common sites for target-based resistance in E. coli.

[8] = system: E. coli MG1655 GyrB R136C; test: microbe, parasite or virus in culture; format: cell-based, Escherichia coli; settings: for MIC: Escherichia coli, MG1655, read-out: Minimum Inhibitory Concentration E. coli MG# GyrB R#C; for Minimum Inhibitory Concentration E. coli MG1655 GyrB R136C: in the presence of 50 µg/mL PAβN
From the text: as §3, §4, §5, §6

[9] = system: E. coli BW25113 WT; test: MIC, E. coli BW25113 wild-type; format: cell-based; settings: Escherichia coli, BW25113, read-out: Minimum Inhibitory Concentration E. coli BW# WT
From the text: as §3, §4, §5

[10] = target: T2, E. coli DNA gyrase (Escherichia coli, UniProt P0AES4+P0AES6); test: E. coli DNA gyrase supercoiling assay; format: biochemical
T2 construct: purchased Inspiralis, Norwich, UK
Procedure: as §1, §2

[11] = system: E. coli MG1655 WT; test: MIC, E. coli MG1655 wild-type with PAβN; format: cell-based, Escherichia coli; settings: for MIC: Escherichia coli, MG1655, read-out: Minimum Inhibitory Concentration E. coli MG# WT, 50 µg/mL PAβN, molar conversion in parentheses; for Minimum Inhibitory Concentration E. coli MG1655 WT: in the presence of 50 µg/mL PAβN
From the text: as §3, §4
as §5, with “USA). […]” for “USA).”

[12] = system: E. coli BW25113 ΔmrcB; format: cell-based, Escherichia coli
From the text: as §3, §4, §5

[13] = system: E. coli BW25113 ΔtolC; format: cell-based, Escherichia coli; settings: for MIC change, ΔtolC mutant versus wild-type E. coli BW25113: improvement of MIC in impaired efflux pump mutant
From the text: as §3, §4, §5

[14] = system: E. coli BW25113 ΔdapF; format: cell-based, Escherichia coli
From the text: as §3, §4, §5

[15] = system: E. coli BW25113 ΔsurA; format: cell-based, Escherichia coli
From the text: as §3, §4, §5

[16] = system: E. coli BW25113 ΔacrB; format: cell-based, Escherichia coli
From the text: as §3, §4, §5

[17] = molar conversion in parentheses
[18] = ATCC27863, 18 h, read-out: MIC P. aeruginosa ATCC #
[19] = ATCC27863, read-out: MIC P. aeruginosa ATCC #, molar conversion in parentheses, read-out: MIC P. aeruginosa ATCC 27863

Compound | IC50 [1] [nM] | MIC ([2]; broth microdilution, 18 h) [µg/mL] | MIC [2, 17] [µM] | MIC ([3]; broth microdilution, 18 h) [µg/mL] | MIC [3, 17] [µM] | MIC ([4]; broth microdilution, 18 h) [µg/mL] | MIC [4, 17] [µM] | MIC [5, 18] [µg/mL] | MIC [5, 19] [µM] | Antibacterial activity against E. cloacae (in words) [6] | MIC ([6]; broth microdilution, 18 h) [µg/mL] | MIC [6, 17] [µM] | Inhibition of topoisomerase IV (in words) [1] | MIC [7] [µM] | Minimum Inhibitory Concentration E. coli MG1655 GyrA S83L, D87N ParC S80I, E84G [7] [µg/mL] | MIC [8] [µM] | Minimum Inhibitory Concentration E. coli MG1655 GyrB R136C [8] [µg/mL] | MIC [9, 17] [µM] | MIC ([9]; wild-type) [µg/mL] | IC50 [10] [nM] | other results
Cc1[nH]c(C(=O)Nc2nc3ccc(C(=O)O)cc3s2)c(Cl)c1Cl [Compound 1a, 2-(3,4-dichloro-5-methyl-1H-pyrrole-2-carboxamido)benzo[d]thiazole-6-carboxylic acid, reference compound] | 500 ± 280 | 4 | 10.8 | 1 | 2.7 | 4 | 10.8 | 8 | 21.6 | inactive | > 64 | > 173 |  |  |  |  |  |  |  |  | 
Cc1[nH]c(C(=O)Nc2nc3c(OCc4ccccc4)cc(C(=O)O)cc3s2)c(Cl)c1Cl [Compound 1b, reference compound] |  | 2 | 4.2 | 4 | 8.4 | 16 | 33.6 | 2 | 4.2 | inactive | > 64 | > 134 |  |  |  |  |  |  |  |  | 
Cc1[nH]c(C(=O)Nc2nc3ccc(C(=O)NCC(=O)N4CCN(c5cc6c(cc5F)c(=O)c(C(=O)O)cn6C5CC5)CC4)cc3s2)c(Cl)c1Cl [Compound 7a, 1-Cyclopropyl-7-(4-((2-(3,4-dichloro-5-methyl-1H-pyrrole-2-carboxamido)benzo[d]thiazole-6-carbonyl)glycyl)piperazin-1-yl)-6-fluoro-4-oxo-1,4-dihydroquinoline-3-carboxylic acid] | 2500 ± 1300 | > 64 | > 86.4 | 4 | 5.4 | > 64 | > 86.4 | > 64 | > 86.4 |  | > 64 | > 86.4 | low micromolar | 0.675 | 0.5 | 2.7 | 2 | > 86.4 | > 64 | 92 ± 10 | MIC [11]: 1.35 µM; Minimum Inhibitory Concentration E. coli MG1655 WT [11]: 1 µg/mL; Minimum Inhibitory Concentration E. coli BW25113 ΔmrcB ([12]; impaired cell-wall mutant): >64 µg/mL; Minimum Inhibitory Concentration E. coli BW25113 ΔmrcB [12, 17]: (>86.4 µM); Minimum Inhibitory Concentration E. coli BW25113 ΔtolC ([13]; efflux pump mutant): 2 µg/mL; MIC change, ΔtolC mutant versus wild-type E. coli BW25113 [13]: above 32 fold; Minimum Inhibitory Concentration E. coli BW25113 ΔtolC [13, 17]: (2.70 µM); Minimum Inhibitory Concentration E. coli BW25113 ΔdapF ([14]; impaired cell-wall mutant): >64 µg/mL; Minimum Inhibitory Concentration E. coli BW25113 ΔdapF [14, 17]: (>86.4 µM); Minimum Inhibitory Concentration E. coli BW25113 ΔsurA ([15]; impaired cell-wall mutant): >64 µg/mL; Minimum Inhibitory Concentration E. coli BW25113 ΔsurA [15, 17]: (>86.4 µM); Minimum Inhibitory Concentration E. coli BW25113 ΔacrB ([16]; efflux pump mutant): >64 µg/mL; Minimum Inhibitory Concentration E. coli BW25113 ΔacrB [16, 17]: (>86.4 µM)
Cc1[nH]c(C(=O)Nc2nc3ccc(C(=O)NCCC(=O)N4CCN(c5cc6c(cc5F)c(=O)c(C(=O)O)cn6C5CC5)CC4)cc3s2)c(Cl)c1Cl [Compound 7b, 1-Cyclopropyl-7-(4-(3-(2-(3,4-dichloro-5-methyl-1H-pyrrole-2-carboxamido)benzo[d]thiazole-6-carboxamido)propanoyl)piperazin-1-yl)-6-fluoro-4-oxo-1,4-dihydroquinoline-3-carboxylic acid] | 3100 | > 64 | > 84.8 | 8 | 10.6 | > 64 | > 84.8 | > 64 | > 84.8 |  | > 64 | > 84.8 | low micromolar | 1.32 | 1 | 1.32 | 1 | > 84.8 | > 64 | 130 ± 10 | MIC [11]: 1.32 µM; Minimum Inhibitory Concentration E. coli MG1655 WT [11]: 1 µg/mL; Minimum Inhibitory Concentration E. coli BW25113 ΔmrcB ([12]; impaired cell-wall mutant): >64 µg/mL; Minimum Inhibitory Concentration E. coli BW25113 ΔmrcB [12, 17]: (>84.8 µM); Minimum Inhibitory Concentration E. coli BW25113 ΔtolC ([13]; efflux pump mutant): 2 µg/mL; MIC change, ΔtolC mutant versus wild-type E. coli BW25113 [13]: above 32 fold; Minimum Inhibitory Concentration E. coli BW25113 ΔtolC [13, 17]: (2.65 µM); Minimum Inhibitory Concentration E. coli BW25113 ΔdapF ([14]; impaired cell-wall mutant): >64 µg/mL; Minimum Inhibitory Concentration E. coli BW25113 ΔdapF [14, 17]: (>84.8 µM); Minimum Inhibitory Concentration E. coli BW25113 ΔsurA ([15]; impaired cell-wall mutant): >64 µg/mL; Minimum Inhibitory Concentration E. coli BW25113 ΔsurA [15, 17]: (>84.8 µM); Minimum Inhibitory Concentration E. coli BW25113 ΔacrB ([16]; efflux pump mutant): >64 µg/mL; Minimum Inhibitory Concentration E. coli BW25113 ΔacrB [16, 17]: (>84.8 µM)
